This note sets out measurements from patent US4244954A, “Acridine compounds and methods of combatting viruses with them” (Sterling Drug Inc., priority 1978, dated 1981).

In data set [1] the test system is herpes simplex virus type 2. Kind of data set: in vitro antiviral activity, serial dilution, herpes simplex virus type 2. Type of data set: cell-based. The note with it: Human alphaherpesvirus 2. Here is the method:
(§1) Antiviral activity was determined in vitro by the conventional serial dilution technique against selected virus species such as herpes simplex virus types 1 and 2. In vivo antiviral activity was determined against herpes virus in the mouse genital model and the guinea pig skin infection model.

The subject of data set [2] is herpes simplex virus 1. In words: in vitro antiviral activity, serial dilution, herpes simplex virus type 1. It counts as cell-based. The note with it: Human alphaherpesvirus 1, read-out: concentration at which active against herpes simplex virus 1. Here is the method: as §1
For data set [3], the system named is herpes simplex type 2. In words: in vivo antiviral activity, mouse genital model. On the set-up: species or system mice. Here is the method: as §1
Data set [4] relates to six herpes simplex strains. Kind of data set: plaque count reduction, six herpes simplex strains. It counts as cell-based, herpes simplex virus. The note with it: at 4-10 mg./ml.
Data set [5] deals with herpes simplex virus type 1. In words: in vivo antiviral activity, guinea pig skin infection model. The note with it: after 48 hours of topical treatment. Here is the method:
as §1

Data set [6] deals with influenza virus A2 /Jap 170. Kind of data set: influenza virus titers in ferret nasal washings. It counts as in vivo. The note with it: 100-200 mg/kg/day.
The test system of data set [7] is Trypanosoma brucei. Type of data set: in vivo, mice. The note with it: for curative effect against T. brucei infection: mice, oral. Here is the method: (§2) Trypanosomacidal activity was determined against Trypanosoma brucei in mice. In a curative test medication was given (orally or parenterally) as a single dose or daily in equally subdivided doses eight hours apart for four days beginning 72 hours after intraperitoneal infection. In a prophylactic-suppressive test the total daily medication was given as a single treatment one day prior to infection, and thereafter for three consecutive days the total daily medications were administered as equally subdivided doses eight hours apart. The infection was uniformly fatal in five to six days in the absence of therapy. Chemotherapeutic effectiveness was based on extension of survival time. Tests were considered terminated 28 days after infection.

The subject of data set [8] is Trypanosoma brucei. Kind of data set: prophylactic-suppressive test against Trypanosoma brucei infection in mice. Type of data set: in vivo. The note with it: oral, 50 mg per kg per day. Here is the method:
as §2

The subject of data set [9] is Endameba criceti. Kind of data set: amebicidal activity in infected hamsters. It counts as in vivo. The note with it: Mesocricetus auratus, 72 h, oral, read-out: dose at which active orally against Endameba criceti in hamsters. Here is the method:
Amebicidal activity was determined by oral administration of the test compound orally to hamsters infected with Endameba criceti and the amount of drug necessary to clear the animals of infection in three days was determined.

In data set [10] the test system is S. aureus. In words: in vitro antimicrobial activity, serial dilution, S. aureus. Type of data set: cell-based. As to conditions: Staphylococcus aureus, read-out: minimum inhibitory concentration (MIC), bacteriostatic activity against S. aureus. Here is the method: (§3) The antimicrobial activity of the compounds was determined in vitro by the conventional serial dilution technique against several species of bacteria and fungi, e.g. S. aureus, S. pyogenes, C. albicans, T. mentagrophytes.

For data set [11], the system named is S. pyogenes. In words: in vitro antimicrobial activity, serial dilution, S. pyogenes. The note with it: Streptococcus pyogenes, read-out: minimum inhibitory concentration (MIC), bacteriostatic activity against S. pyogenes. Type of data set: cell-based. Here is the method:
as §3

The mark [12] stands for this setting: read-out: concentration at which active in vitro against herpes simplex virus type 2.
Setting [13] is: in vitro, read-out: concentration at which active against herpes simplex virus 2.

Read-outs that look alike come from different tables or passages of the source.

As to `CN(C)CCOc1ccc2c(c1)c(=O)c1ccccc1n2C` [Example 1, 2-(2-Dimethylaminoethoxy)-10-methyl-9(10H)-acridinone], in data set [1] (setting [12]), the minimal effective concentration lay in the range of 3 to 6 µg/mL.

Take `Cn1c2ccccc2c(=O)c2cc(OCCN3CCCC3)ccc21` [Example 7, 2-[2-(1-Pyrrolidyl)ethoxy]-10-methyl-9(10H)-acridinone]: the minimal effective concentration in data set [2] and in data set [1] (setting [13]) was 6 µg/mL throughout. Moreover, in data set [3] (mice, genital infection), the “effect against herpes virus 2 genital infection in mice” value is listed as “effective”.

With `Cn1c2ccccc2c(=O)c2cc(OCCN3CCOCC3)ccc21` [Example 8, 2-[2-(4-Morpholinyl)ethoxy]-10-methyl-9(10H)-acridinone], the minimal effective concentration in data set [2] and in data set [1] (setting [13]) was 25 µg/mL in each case.

As to `CN1CCN(CCOc2ccc3c(c2)c(=O)c2ccccc2n3C)CC1` [Example 9, 2-[2-(4-Methyl-1-piperazinyl)ethoxy]-10-methyl-9(10H)-acridinone], the minimal effective concentration in data set [2] and in data set [1] (setting [13]) was 25 µg/mL each time.

Turning to `Cn1c2ccccc2c(=O)c2cc(OCCN3CCCCC3)ccc21` [Example 10, 2-[2-(1-Piperidyl)ethoxy]-10-methyl-9(10H)-acridinone], the minimal effective concentration in data set [2] amounted to 6 µg/mL.

On to `CCn1c2ccccc2c(=O)c2cc(OCCN3CCCC3)ccc21` [Example 11, 2-[2-(1-Pyrrolidyl)ethoxy]-10-ethyl-9(10H)-acridinone], for which the minimal effective concentration in [2] and in data set [1] (setting [13]) was 25 µg/mL throughout.

Take `Cn1c2ccccc2c(=O)c2cccc(OCCN3CCCC3)c21` [Example 13, 4-[2-(1-Pyrrolidyl)ethoxy]-10-methyl-9(10H)-acridinone]: the minimal effective concentration in [1] (setting [13]) turned out to be 12 µg/mL.

`Cn1c2ccccc2c(=O)c2cccc(OCCN3CCCCC3)c21` [Example 15, 4-[2-(1-Piperidyl)ethoxy]-10-methyl-9(10H)-acridinone]: the minimal effective concentration in data set [1] (setting [13]) was 12 µg/mL.

Regarding `Cn1c2ccccc2c(=O)c2cc(OCCCCN3CCCC3)ccc21` [Example 16, 2-[4-(1-Pyrrolidyl)butoxy]-10-methyl-9(10H)-acridinone], the minimal effective concentration in [2] and in [1] (setting [13]) was 6 µg/mL throughout.

Consider `CN(C)CCOc1cccc2c1c(=O)c1ccccc1n2C` [Example 27, 1-(2-Dimethylaminoethoxy)-10-methyl-9(10H)-acridinone], for which the minimal effective concentration in [2] and in [1] (setting [13]) was 6 µg/mL throughout. Also, in [3] (concentrations ranging from 2.5 to 10%), the “survival in mice with genital herpes simplex type 2 infection” value is given as 50-90%. Further, the “reduction of the plaque counts of six herpes simplex strains” value in data set [4] is “at least 50%”. The “reduction of virus titer of herpes simplex virus type 1 in guinea pig skin infection” value in data set [5] is listed as “more than 99%”. Besides, in data set [6], the “reduction in influenza virus A2 /Jap 170 titers in ferret nasal washings” value was “significant reduction”.

Consider `Cn1c2ccccc2c(=O)c2c(OCCN3CCCCC3)cccc21` [Example 33, 1-[2-(1-Piperidyl)ethoxy]-10-methyl-9(10H)-acridinone], for which the minimal effective concentration in data set [2] was 6 µg/mL.

In the case of `CN1C2CCCC1CC(Oc1cccc3c1c(=O)c1ccccc1n3C)C2` (stereo not drawn) [Example 34, exo-1-(9-Methylgranatanin-3-yloxy)-10-methyl-9(10H)-acridinone], the minimal effective concentration in data set [2] and in data set [1] (setting [13]) was 25 µg/mL throughout.

For `CN(C)CCOc1ccc2c(c1)C(O)(c1ccccc1)c1ccccc1N2C` (stereo not drawn) [Example 37, 2-(2-Dimethylaminoethoxy)-9,10-dihydro-10-methyl-9-phenyl-9-acridinol], in [7] (intramuscularly, single dose of 200 mg/kg three days after infection), the “effect against T. brucei infection, intramuscular” value was “completely effective”. In addition, the “effect against T. brucei infection, intraperitoneal” value in data set [7] (intraperitoneally, single dose of 200 mg/kg three days after infection) is “completely effective”. Further, the “curative effect against T. brucei infection” value in data set [7] (25 mg/kg/day×4) is on record as “completely effective”. The “effect against T. brucei infection, subcutaneous” value in [7] (subcutaneously, single dose of 200 mg/kg three days after infection) is “completely effective”. Besides, the “prophylactic effect against T. brucei infection” value in data set [8] was “completely effective”.

Take `CCN(CC)CCOc1ccc2c(c1)C(O)(c1ccccc1)c1ccccc1N2C` (stereo not drawn) [Example 38, 2-(2-Diethylaminoethoxy)-9,10-dihydro-10-methyl-9-phenyl-9-acridinol]: in [7] (50 mg/kg/day×4), the “curative effect against T. brucei infection” value is listed as “completely effective”.

Regarding `COc1ccc(C2(O)c3ccccc3N(C)c3ccc(OCCN(C)C)cc32)cc1` (stereo not drawn) [Example 65, 2-(2-Dimethylaminoethoxy)-9,10-dihydro-9-(4-methoxyphenyl)-10-methyl-9-acridinol], in [7] (200 mg/kg/day×4), the “curative effect against T. brucei infection” value was “completely effective”.

For the compound `CN(C)CCOc1ccc2c(c1)c(-c1ccccc1)c1ccccc1[n+]2C.Cl.[Cl-]` [Example 68, 2-(2-Dimethylaminoethoxy)-10-methyl-9-phenylacridinium chloride hydrochloride], the “curative effect against T. brucei infection” value in data set [7] (25 mg/kg/day×4) is reported as “completely effective”. Moreover, the “toxicity upon parenteral administration” value in [7] (mouse, in vivo) is “toxic”. Moreover, the “curative effect against T. brucei infection, parenteral” value in [7] (parenteral, 50 mg/kg dose level) is reported as “some curative effect”.

Consider `CN(C)CCOc1ccc2c(c1)c(Cc1ccccc1)c1ccccc1[n+]2C.Cl.[Cl-]` [Example 78, 2-(2-Dimethylaminoethoxy)-10-methyl-9-benzylacridinium chloride hydrochloride], for which the “curative effect against T. brucei infection” value in [7] (100 mg/kg/day×4) is given as “completely effective”. The minimal effective dose in data set [9] was found to be 100 mg/kg.

Regarding `CN(C)CCOc1ccc2c(c1)c(Cc1ccc(F)cc1)c1ccccc1[n+]2C.Cl.[Cl-]` [Example 79, 2-(2-Dimethylaminoethoxy)-10-methyl-9-(4-fluorobenzyl)acridinium chloride hydrochloride], the “curative effect against T. brucei infection” value in data set [7] (200 mg/kg/day×4) is “completely effective”. Moreover, the minimal effective dose in data set [9] was found to be 100 mg/kg.

With `Cc1ccc(Cc2c3ccccc3[n+](C)c3ccc(OCCN(C)C)cc23)cc1.Cl.[Cl-]` [Example 80, 2-(2-Dimethylaminoethoxy)-10-methyl-9-(4-methylbenzyl)acridinium chloride hydrochloride], the “curative effect against T. brucei infection” value in [7] (200 mg/kg/day×4) is given as “ineffective”. The MIC came out at 15.6 µg/mL in data set [10] and 7.8 µg/mL in [11].

As for `CN(C)CCOc1ccc2c(Cc3ccccc3)c3ccccc3[n+](C)c2c1.Cl.[Cl-]` [Example 81, 3-(2-Dimethylaminoethoxy)-10-methyl-9-benzylacridinium chloride hydrochloride], the “curative effect against T. brucei infection” value in data set [7] (100 mg/kg/day×4) is “completely effective”. In addition, the MIC in [10] (in vitro) and in [11] was 31.3 µg/mL in each case.

Take `CN(C)CCCOc1ccc2c(Cc3ccccc3)c3ccccc3[n+](C)c2c1.Cl.[Cl-]` [Example 82, 3-(3-Dimethylaminopropoxy)-10-methyl-9-benzylacridinium chloride hydrochloride]: the “curative effect against T. brucei infection” value in data set [7] (100 mg/kg/day×4) is given as “completely effective”. Besides, in [10] (in vitro), the MIC amounted to 31.3 µg/mL.

Consider `CN(C)CCOc1ccc2c(c1)c(Cc1ccc(Cl)cc1)c1ccccc1[n+]2C.Cl.[Cl-]` [Example 83, 2-(2-Dimethylaminoethoxy)-10-methyl-9-(4-chlorobenzyl)acridinium chloride hydrochloride], for which the minimal effective concentration in data set [1] (concentration at which active, read-out: antiviral activity against herpes type 2) turned out to be 25 µg/mL. Besides, in data set [7] (200 mg/kg/day×4), the “curative effect against T. brucei infection” value was “ineffective”. Besides, in data set [10] (in vitro), the MIC amounted to 7.8 µg/mL.

As to `CN(C)CCOc1ccc2c(c1)c(Cc1cccc(F)c1)c1ccccc1[n+]2C.Cl.[Cl-]` [Example 84, 2-(2-Dimethylaminoethoxy)-10-methyl-9-(3-fluorobenzyl)acridinium chloride hydrochloride], the “curative effect against T. brucei infection” value in [7] (200 mg/kg/day×4) is “completely effective”. The MIC in [10] (in vitro) and in data set [11] was 15.6 µg/mL throughout.

With `CCN(CC)CCOc1ccc2c(c1)c(Cc1ccccc1)c1ccccc1[n+]2C.Cl.[Cl-]` [Example 85, 2-(2-Diethylaminoethoxy)-10-methyl-9-benzylacridinium chloride hydrochloride], the “curative effect against T. brucei infection” value in data set [7] (100 mg/kg/day×4) is recorded as “completely effective”. Moreover, the MIC in [10] (in vitro) and in data set [11] was 31.3 µg/mL each time.

With `COc1ccc2c(c1)c(Cc1ccccc1)c1ccc(OCCN(C)C)cc1[n+]2C.Cl.[Cl-]` [Example 87, 3-(2-Dimethylaminoethoxy)-7-methoxy-10-methyl-9-benzylacridinium chloride hydrochloride], in data set [1] (setting [12]), the minimal effective concentration was determined as 12 µg/mL. Besides, the “effect against T. brucei” value in [7] (200 mg/kg/day×4, route and test type not given) is on record as “ineffective”.
